Reference: US7531195B2, “Schisandrin B preparation” (priority 2005, dated 2009)
Marks after values point to notes of the source that are not given here.

Assays:
[1] = tested on: mitochondria of brain, heart, liver and skeletal muscle; assay: Mitochondrial antioxidant components in tissues of young adult and middle-aged rats; format: in vivo, rat; details: 10 mg/kg/day x 15, range among tissues
Procedure: Young adult (8-10 week-old) and middle-aged (12-14 month-old retired breeder) female Sprague-Dawley rats were maintained under a 12-h dark/light cycle at about 22° C. and allowed food and water ad libitum. Experimental protocols were approved by the Research Practice Committee at the Hong Kong University of Science & Technology, Hong Kong. Animals were randomly divided into groups, with 5 animals in each. In the treatment groups, rats were intragastrically administered with Sch B (dissolved/suspended in olive oil) at a daily dose of 10 mg/kg for 15 days. The daily dose is approximated to 1.14 mg/kg for humans after adjusting the inter-species difference in drug distribution in the body. Untreated control animals received olive oil only. Twenty-four hours after the last dosing, animals were sacrificed by decapitation and the whole brain, heart ventricular, liver and skeletal muscle (hind limb) tissues were excised and subjected to biochemical analysis. To investigate the effect of (−) Sch B on myocardial ischemia-reperfusion […] injury, rats were intragastrically administered with (−) Sch B at a daily dose of 10 mg/kg for 35 days. Untreated control animals received olive oil only. Twenty-four hours after the last dosing, hearts were isolated from pentobarbital-anesthetized animals and subjected to I-R experiment.
Mitochondrial pellets were prepared from tissue homogenates by centrifugation at 800×g at 4° C. for 30 min, with purity being determined by measuring the relative specific activities of succinate dehydrogenase and lactate dehydrogenase (LDH) in the supernatant and mitochondrial pellet. Mitochondrial pellets were then resuspended in 1 ml of the respective homogenizing buffer used for various tissues and constituted the mitochondrial fractions. The protein concentration of mitochondrial fractions was determined using a Bio-Rad protein assay kit.
Aliquots (200 μl) of mitochondrial fractions were used for measuring mitochondrial glutathione (GSH) and α-tocopherol (α-TOC) levels by an enzymatic method and HPLC method, respectively, using GSH and α-TOC as standards. Se-glutathione peroxidase (GPX) activity was measured. Mn-superoxide dismutase (SOD) activity was measured by monitoring the […] of cytochrome c caused by superoxide radicals generated from the xanthine oxidase-xanthine reaction.

[2] = tested on: H9c2 cells; assay: Cellular GSH level in H9c2 cells, time course, with or without xanthine/xanthine oxidase (X/XO) challenge; format: cell-based, rat; details: 6.25 μM
Procedure: H9c2 cells, a permanent cell line derived from cardiac myoblasts of rat embryo, have early been characterized as a suitable model of myocardial cells [Hescheler et al. 1991]. H9c2 cells were cultured as monolayers in Dulbecco's modified Eagle's medium (GIBCO BRL) supplemented with 10% (v/v) fetal bovine serum. The medium contained glucose (4.5 g/L) and glutamine (4.5 mM), supplemented with NaHCO3 (17 mM), penicillin (100 IU/ml), and streptomycin (100 μg/ml). Cells were grown under an atmosphere of 5% CO2 in air at 37° C. The medium was replaced by fresh medium every 2 or 3 days. A stock of cells was grown in a 75 cm culture flask and split before confluence at a subcultivation ratio of 1:10. Cells used for experiments were seeded at a density of 3.75×10^4 cells/well on a 12-well culture plate, and the cells were grown for 24 h to about 80% confluence prior to drug treatment.
Cultured H9c2 cells were treated with (−) Schisandrin B, (+) Schisandrin B or (±) Schisandrin B (dissolved in DMSO) at 6.25 μM (0.2% DMSO final concentration) for increasing periods of time. Control cells were given the vehicle (i.e. DMSO) only. Immediately following the drug or vehicle pretreatment, the cells were challenged with a mixture of xanthine (X) (0.1 mM) and xanthine oxidase (XO) (0.4 U/ml) for 4 h. The control cells were treated with the medium only. After the X/XO challenge, the medium was taken for the measurement of LDH activity, a biochemical index of cellular injury.
The cells were washed twice with 0.5 ml cold phosphate-buffered saline (PBS), An aliquot (200 μl) of 3% sulfonsalicyclic acid was then added, and the mixture was incubate at 4° C. for 10 min. After centrifuging at 300 g for 15 min at 4° C., the supernatant was used for GSH measurement by an enzymatic method of Griffith (1980).

[3] = tested on: Myocardial Mitochondria; assay: Myocardial mitochondrial ATP generation capacity, young male and female rats; format: in vivo, rat; details: 35 days
Procedure: Male/Female adult Sprague-Dawley rats (˜10 weeks old) were maintained under a 12-h dark/light cycle at about 22° C. and allowed food and water ad libitum. Animals were randomly divided into groups, with at least 5 animals in each. In the pretreatment groups, rats were treated intragastrically with (−) Schisandrin B at a daily dose of 1 or 10 mg/kg for 35 days. Control animals received oil only (10 ml/kg). Twenty-four hours following the last dosing, hearts were isolated from control or drug-pretreated rats and then subjected to Langendorff perfusion as described below.
Myocardial tissue samples were rinsed with ice-cold isotonic buffer (50 mM Tris, 0.32 M sucrose, 1 mM Na2EDTA, 0.2 mg/ml soybean trypsin inhibitor, 0.2 mg/ml bacitracine, 0.16 mg/ml benzamidine). Tissue homogenates were prepared by homogenizing 0.8 g of myocardial tissue in 8 ml ice-cold isotonic buffer and the homogenates were used for the preparation of mitochondrial fractions by differential centrifugation, as described in Chiu and Ko (2004). The mitochondrial pellets were resuspended in 1.5 ml of isotonic buffer containing 150 μl of 2 mg/ml soybean trypsin inhibitor and constituted the mitochondrial fractions.
Myocardial mitochondrial ATP generation capacity was measured by incubating 200 μl of nucleus-free tissue homogenate with 200 μl of substrate solution (containing 100 mM glutamate and 34 mM malate) and 20 μl ADP (2.3 mM) for 10 min at 37° C., and the ATP level were measured using an assay kit from Sigma Chemical Co. (St. Louis, Mo., USA). LDH activity was spectrophotometrically measured as described (Yim and Ko 1999).

[4] = X/XO challenge, 16 h post-dosing
[5] = female rats, 1 mg/kg daily oral
[6] = female rats, 10 mg/kg daily oral

With `COc1cc2c(c(OC)c1OC)-c1c(cc3c(c1OC)OCO3)CC(C)C(C)C2` (single isomer, unassigned; (-)) [(−) Sch B, (−) Schisandrin B] as the compound, how does the “extent of stimulation of mitochondrial GPX activity” value [1] read?
The value was 21-41%.

What about the “extent of stimulation of mitochondrial GSH level” value [1] of the same compound?
Its value is 21-29%.

What about the “extent of stimulation of mitochondrial SOD activity” value [1] of the same compound?
The value was 19-34%.

And the “extent of stimulation of mitochondrial α-TOC level” value [1]?
Its value is 19-34%.

What about the “stimulatory effect on cellular GSH” value ([2]; 48 h post-dosing) of the same compound?
The value was “no detectable stimulatory effect”.

What about the “time of maximum stimulation of cellular GSH” value ([2]; post-dosing) of the same compound?
Its value is 16 h.

And the “GSH Level” value ([2]; NON-X/XO, 0 h post-dosing (unpretreated control))?
Its value is 35.8 ± 1.04 nmol/mg protein.

And the “GSH Level” value ([2]; NON-X/XO, 4 h post-dosing)?
The value was 46.8 ± 0.88 nmol/mg protein.

What about the “GSH Level” value ([2]; NON-X/XO, 8 h post-dosing) of the same compound?
Its value is 54.2 ± 1.42 nmol/mg protein.

What about the “GSH Level” value ([2]; NON-X/XO, 16 h post-dosing) of the same compound?
The value was 92.6 ± 1.29 nmol/mg protein.

What about the “GSH Level, percent increase vs unpretreated control (0 h)” value ([2]; NON-X/XO, 16 h post-dosing) of the same compound?
The value was “(158%)”.

What about the “GSH Level” value ([2]; NON-X/XO, 24 h post-dosing) of the same compound?
The value was 79.0 ± 1.48 nmol/mg protein.

And the “GSH Level” value ([2]; NON-X/XO, 48 h post-dosing)?
The value was 54.7 ± 3.58 nmol/mg protein.

What about the “GSH Level” value ([2]; X/XO challenge, 0 h post-dosing (unpretreated control)) of the same compound?
Its value is 15.9 ± 0.45 nmol/mg protein.

And the “GSH Level” value ([2]; X/XO challenge, 4 h post-dosing)?
The value was 18.3 ± 0.57 nmol/mg protein.

And the “GSH Level” value ([2]; X/XO challenge, 8 h post-dosing)?
Its value is 20.7 ± 0.61 nmol/mg protein.

And the “GSH Level” value [2, 4]?
Its value is 25.1 ± 1.50 nmol/mg protein.

What about the “GSH Level, percent increase vs unpretreated control (0 h)” value [2, 4] of the same compound?
The value was “(57%)”.

And the “GSH Level” value ([2]; X/XO challenge, 24 h post-dosing)?
Its value is 17.8 ± 0.59 nmol/mg protein.

And the “GSH Level” value ([2]; X/XO challenge, 48 h post-dosing)?
Its value is 16.7 ± 0.63 nmol/mg protein.

What about the “ATP Generation, percent increase vs untreated control” value (“ATP Generation, percent increase” for short) [3, 5] of the same compound?
Its value is “(26%)”.

And the “ATP generation” value [3, 5]?
The value was 4.11 ± 0.19^b μmol/min/mg protein.

And the “ATP Generation, percent increase” value [3, 6]?
Its value is “(78%)”.

And the “ATP generation” value [3, 6]?
Its value is 5.79 ± 0.37^b μmol/min/mg protein.

And the “ATP Generation, percent increase” value ([3]; male rats, 1 mg/kg daily oral)?
The value was “(99%)”.

And the “ATP Generation, percent increase” value ([3]; male rats, 10 mg/kg daily oral)?
The value was “(141%)”.

What about the “ATP generation” value ([3]; male rats, 10 mg/kg daily oral) of the same compound?
The value was 6.74 ± 0.37^a μmol/min/mg protein.
